In ChEMBL document CHEMBL3885881, “DrugMatrix”:

Species: Rattus norvegicus
Assay: DrugMatrix - Regimen: Daily Repeat
Type: toxicity, organism-based, Sprague-Dawley
Parameters: regimen Daily Repeat, gender Male, age 6-8 weeks
Conditions: in vivo, po, route oral GAVAGE, vehicle .5 % CMC; for BASOPHIL / EOSINOPHIL / ERYTHROCYTE COUNT / HEMATOCRIT / HEMOGLOBIN / LEUKOCYTE COUNT / LYMPHOCYTE / MEAN CORPUSCULAR HEMOGLOBIN / MEAN CORPUSCULAR HEMOGLOBIN CONCENTRATION / MEAN CORPUSCULAR VOLUME / MONOCYTE / NEUTROPHIL / PLATELET COUNT: tissue Blood; for ALANINE AMINOTRANSFERASE / ALBUMIN / ALKALINE PHOSPHATASE / ASPARTATE AMINOTRANSFERASE / BLOOD UREA NITROGEN / CARBON DIOXIDE / CHLORIDE / CHOLESTEROL / CREATINE PHOSPHOKINASE / CREATININE / GLUCOSE / LACTATE DEHYDROGENASE / LIPASE / PHOSPHORUS / POTASSIUM / SODIUM / TOTAL BILIRUBIN / TOTAL PROTEIN / URIC ACID: tissue Plasma
[1] = 0 mg/kg, 72 h, dose level Control, time 3 day
[2] = 0 mg/kg, 120 h, dose level Control, time 5 day
[3] = 1200 mg/kg, 72 h, dose level High, time 3 day
[4] = 1200 mg/kg, 120 h, dose level High, time 5 day

In the case of CCCCC1=NC2(CCCC2)C(=O)N1Cc1ccc(-c2ccccc2-c2nnn[nH]2)cc1 [IRBESARTAN], the BASOPHIL [1] is reported as 0.17%, the EOSINOPHIL [1] is reported as 0.83% and the “ERYTHROCYTE COUNT” value [1] is reported as 7.2 x10E6/uL. The HEMATOCRIT [1] was 43.13%, the HEMOGLOBIN [1] was 14.63 G/DL and the “LEUKOCYTE COUNT” value [1] was 9.05 x10E3/uL. For the same compound, the LYMPHOCYTE [1] was 75.17%, the “MEAN CORPUSCULAR HEMOGLOBIN” value [1] was 20.35 pg and the “MEAN CORPUSCULAR HEMOGLOBIN CONCENTRATION” value [1] was 33.95 G/DL. The “MEAN CORPUSCULAR VOLUME” value [1] was 59.93 fL, the MONOCYTE [1] was 2.83% and the NEUTROPHIL [1] was 21.17%. The “PLATELET COUNT” value [1] was 1093.17 x10E3/uL, the “ALANINE AMINOTRANSFERASE” value [1] was 49.17 u/L and the ALBUMIN [1] was 4.33 G/DL. The “ALKALINE PHOSPHATASE” value [1] was 366.5 u/L, the “ASPARTATE AMINOTRANSFERASE” value [1] was 86.33 u/L and the “BLOOD UREA NITROGEN” value [1] was 17 mg/dL. For the same compound, the “CARBON DIOXIDE” value [1] was 24.17 mmol/L, the CHLORIDE [1] was 102.83 MEQ/L and the CHOLESTEROL [1] was 78.33 mg/dL. The “CREATINE PHOSPHOKINASE” value [1] was 320.83 u/L, the CREATININE [1] was 0.3 mg/dL and the GLUCOSE [1] was 140.83 mg/dL. For the same compound, the “LACTATE DEHYDROGENASE” value [1] was 210 u/L, the LIPASE [1] was 9.33 u/L and the PHOSPHORUS [1] was 9.12 mg/dL. For the same compound, the POTASSIUM [1] was 5.65 MEQ/L, the SODIUM [1] was 144.17 MEQ/L and the “TOTAL BILIRUBIN” value [1] was 0.1 mg/dL. For the same compound, the “TOTAL PROTEIN” value [1] was 6.3 G/DL, the “URIC ACID” value [1] was 1.03 mg/dL and the BASOPHIL [2] was 0.17%. The EOSINOPHIL [2] was 1%, the “ERYTHROCYTE COUNT” value [2] was 7.02 x10E6/uL and the HEMATOCRIT [2] was 43.12%. The HEMOGLOBIN [2] was 14.18 G/DL, the “LEUKOCYTE COUNT” value [2] was 9.63 x10E3/uL and the LYMPHOCYTE [2] was 72%. For the same compound, the “MEAN CORPUSCULAR HEMOGLOBIN” value [2] was 20.25 pg, the “MEAN CORPUSCULAR HEMOGLOBIN CONCENTRATION” value [2] was 32.95 G/DL and the “MEAN CORPUSCULAR VOLUME” value [2] was 61.43 fL. The MONOCYTE [2] was 2.67%, the NEUTROPHIL [2] was 24.5% and the “PLATELET COUNT” value [2] was 1028.5 x10E3/uL. The “ALANINE AMINOTRANSFERASE” value [2] was 42.5 u/L, the ALBUMIN [2] was 4.2 G/DL and the “ALKALINE PHOSPHATASE” value [2] was 300.33 u/L. For the same compound, the “ASPARTATE AMINOTRANSFERASE” value [2] was 87.67 u/L, the “BLOOD UREA NITROGEN” value [2] was 17 mg/dL and the “CARBON DIOXIDE” value [2] was 24.33 mmol/L. For the same compound, the CHLORIDE [2] was 99 MEQ/L, the CHOLESTEROL [2] was 70.67 mg/dL and the “CREATINE PHOSPHOKINASE” value [2] was 891.33 u/L. The CREATININE [2] was 0.3 mg/dL, the GLUCOSE [2] was 139.67 mg/dL and the “LACTATE DEHYDROGENASE” value [2] was 289.83 u/L. The LIPASE [2] was 8.83 u/L, the PHOSPHORUS [2] was 9.5 mg/dL and the POTASSIUM [2] was 5.55 MEQ/L. For the same compound, the SODIUM [2] was 139 MEQ/L, the “TOTAL BILIRUBIN” value [2] was 0.0833 mg/dL and the “TOTAL PROTEIN” value [2] was 6.1 G/DL. The “URIC ACID” value [2] was 0.98 mg/dL, the BASOPHIL [3] was 0.33% and the EOSINOPHIL [3] was 1%. For the same compound, the “ERYTHROCYTE COUNT” value [3] was 7.31 x10E6/uL, the HEMATOCRIT [3] was 43.7% and the HEMOGLOBIN [3] was 14.73 G/DL. The “LEUKOCYTE COUNT” value [3] was 11.5 x10E3/uL, the LYMPHOCYTE [3] was 81.67% and the “MEAN CORPUSCULAR HEMOGLOBIN” value [3] was 20.17 pg. The “MEAN CORPUSCULAR HEMOGLOBIN CONCENTRATION” value [3] was 33.73 G/DL, the “MEAN CORPUSCULAR VOLUME” value [3] was 59.8 fL and the MONOCYTE [3] was 2%. The NEUTROPHIL [3] was 14.67%, the “PLATELET COUNT” value [3] was 1173.33 x10E3/uL and the “ALANINE AMINOTRANSFERASE” value [3] was 46 u/L. The ALBUMIN [3] was 4.67 G/DL, the “ALKALINE PHOSPHATASE” value [3] was 305.33 u/L and the “ASPARTATE AMINOTRANSFERASE” value [3] was 75 u/L. The “BLOOD UREA NITROGEN” value [3] was 17.67 mg/dL, the “CARBON DIOXIDE” value [3] was 28.33 mmol/L and the CHLORIDE [3] was 103.33 MEQ/L. The CHOLESTEROL [3] was 73 mg/dL, the “CREATINE PHOSPHOKINASE” value [3] was 219 u/L and the CREATININE [3] was 0.3 mg/dL. For the same compound, the GLUCOSE [3] was 133.33 mg/dL, the “LACTATE DEHYDROGENASE” value [3] was 300.67 u/L and the LIPASE [3] was 9.33 u/L. It also gave a PHOSPHORUS [3] of 9.03 mg/dL, a POTASSIUM [3] of 5.67 MEQ/L and an SODIUM [3] of 146 MEQ/L. For the same compound, the “TOTAL BILIRUBIN” value [3] was 0.1 mg/dL, the “TOTAL PROTEIN” value [3] was 6.67 G/DL and the “URIC ACID” value [3] was 1.23 mg/dL. The BASOPHIL [4] was 0.33%, the EOSINOPHIL [4] was 1% and the “ERYTHROCYTE COUNT” value [4] was 7.01 x10E6/uL. For the same compound, the HEMATOCRIT [4] was 42.37%, the HEMOGLOBIN [4] was 14.23 G/DL and the “LEUKOCYTE COUNT” value [4] was 11.4 x10E3/uL. For the same compound, the LYMPHOCYTE [4] was 79.67%, the “MEAN CORPUSCULAR HEMOGLOBIN” value [4] was 20.33 pg and the “MEAN CORPUSCULAR HEMOGLOBIN CONCENTRATION” value [4] was 33.57 G/DL. The “MEAN CORPUSCULAR VOLUME” value [4] was 60.47 fL, the MONOCYTE [4] was 2% and the NEUTROPHIL [4] was 17.33%. The “PLATELET COUNT” value [4] was 1226.33 x10E3/uL, the “ALANINE AMINOTRANSFERASE” value [4] was 44.67 u/L and the ALBUMIN [4] was 4.23 G/DL. For the same compound, the “ALKALINE PHOSPHATASE” value [4] was 299.5 u/L, the “ASPARTATE AMINOTRANSFERASE” value [4] was 74.33 u/L and the “BLOOD UREA NITROGEN” value [4] was 18.67 mg/dL. The “CARBON DIOXIDE” value [4] was 20 mmol/L, the CHLORIDE [4] was 98.33 MEQ/L and the CHOLESTEROL [4] was 74 mg/dL. The “CREATINE PHOSPHOKINASE” value [4] was 216.33 u/L, the CREATININE [4] was 0.27 mg/dL and the GLUCOSE [4] was 136 mg/dL. The “LACTATE DEHYDROGENASE” value [4] was 197.33 u/L, the LIPASE [4] was 8.67 u/L and the PHOSPHORUS [4] was 7.83 mg/dL. The POTASSIUM [4] was 5.6 MEQ/L, the SODIUM [4] was 138 MEQ/L and the “TOTAL BILIRUBIN” value [4] was 0.1 mg/dL. For the same compound, the “TOTAL PROTEIN” value [4] was 6.17 G/DL and the “URIC ACID” value [4] was 0.93 mg/dL.
